Measured values from patent US20240059703A1 (AMGEN INC., priority 2021, published 2024).

What follows are compounds tested against KRAS G12C (Homo sapiens (Human), UniProt P01116, C118A/G12C) (assay: 2 h coupled exchange assay). Details: Avg 2 h Coupled exchange IC50, 2 h compound pre-incubation.
Format: biochemical
Procedure: The term “2 h coupled exchange assay” or “20 h coupled exchange assay” as used herein refers to the assay described in the Section entitled “BIOLOGICAL EVALUATION.”

KRAS G12C, sequence (P01116 other isoform, or with tags, fused parts or gaps G12C/C118A): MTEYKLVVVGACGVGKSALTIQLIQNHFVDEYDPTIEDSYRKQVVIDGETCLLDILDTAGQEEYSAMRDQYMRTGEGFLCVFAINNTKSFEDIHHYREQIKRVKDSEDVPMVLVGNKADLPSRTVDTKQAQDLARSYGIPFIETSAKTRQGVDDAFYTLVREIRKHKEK

Structure (SMILES) | IC50
C=CC(=O)N1CC2(CCN(c3nc4c(c(-c5cccc6cc(O)ccc56)c3F)COC(C)(C)C4)C2)C1 [Example 14-65, 1-(6-(3-fluoro-4-(6-hydroxy-1-naphthalenyl)-7,7-dimethyl-7,8-dihydro-5H-pyrano[4,3-b]pyridin-2-yl)-2,6-diazaspiro[3.4]octan-2-yl)-2-propen-1-one] | 367 nM
C=CC(=O)N1CC2(CCN(c3nc4c(c(-c5c(C)ccc6cnn(C)c56)c3F)COC(C)(C)C4)C2)C1 [Example 14-71, 1-(6-(4-(1,6-dimethyl-1H-indazol-7-yl)-3-fluoro-7,7-dimethyl-7,8-dihydro-5H-pyrano[4,3-b]pyridin-2-yl)-2,6-diazaspiro[3.4]octan-2-yl)-2-propen-1-one] | 781 nM
C=CC(=O)N1CC2(CCN(c3nc4c(c(-c5c(C)ccc6cnn(C(F)F)c56)c3C#N)COC(C)(C)C4)C2)C1 [Example 14-83, 4-(1-(difluoromethyl)-6-methyl-1H-indazol-7-yl)-7,7-dimethyl-2-(2-(2-propenoyl)-2,6-diazaspiro[3.4]octan-6-yl)-7,8-dihydro-5H-pyrano[4,3-b]pyridine-3-carbonitrile] | 432 nM
C=CC(=O)N1CC2(CCN(c3nc4c(c(-c5c(C)c(Cl)cc6cn[nH]c56)c3F)COC(C)(C)C4)C2)C1 [Example 14-85] | 56 nM
C=CC(=O)N1CC2(CCN(c3nc4ccccc4c(-c4c(C)c(Cl)cc5cnn(C)c45)c3C#N)C2)C1 [Example 14-90, 4-(5-chloro-1,6-dimethyl-1H-indazol-7-yl)-2-(2-(2-propenoyl)-2,6-diazaspiro[3.4]octan-6-yl)-3-quinolinecarbonitrile] | 148 nM
C=CC(=O)N1CC2(CCN(c3nc4c(c(-c5ccc(F)c6sc(N)c(C#N)c56)c3C)COC(C)(C)C4)C2)C1 [Example 14-106, 2-amino-7-fluoro-4-(3,7,7-trimethyl-2-(2-(2-propenoyl)-2,6-diazaspiro[3.4]octan-6-yl)-7,8-dihydro-5H-pyrano[4,3-b]pyridin-4-yl)-1-benzothiophene-3-carbonitrile] | 46 nM
C=CC(=O)N1CC2(CCN(c3nc4cc(-c5scnc5C)ccc4c(-c4ccccc4Cl)c3C)C2)C1 [Example 15-2, 1-(6-(4-(2-chlorophenyl)-3-methyl-7-(4-methyl-1,3-thiazol-5-yl)-2-quinolinyl)-2,6-diazaspiro[3.4]octan-2-yl)-2-propen-1-one] | 478 nM
C=CC(=O)N1CC2(CCN(c3nc4cc(-n5ccnc5C)ccc4c(-c4ccccc4Cl)c3C)C2)C1 [Example 15-4, 1-(6-(4-(2-chlorophenyl)-3-methyl-7-(2-methyl-1H-imidazol-1-yl)-2-quinolinyl)-2,6-diazaspiro[3.4]octan-2-yl)-2-propen-1-one] | 280 nM
C=CC(=O)N1CC2(CCN(c3nc4cc(-c5cc(C)nn5C)ccc4c(-c4ccccc4Cl)c3C)C2)C1 [Example 16-2, 1-(6-(4-(2-chlorophenyl)-7-(1,3-dimethyl-1H-pyrazol-5-yl)-3-methyl-2-quinolinyl)-2,6-diazaspiro[3.4]octan-2-yl)-2-propen-1-one] | 648 nM
C=CC(=O)N1CC2(CCN(c3nc4cc(-c5ccnn5C)ccc4c(-c4ccc(F)cc4)c3C)C2)C1 [Example 16-3, 1-(6-(4-(4-fluorophenyl)-3-methyl-7-(1-methyl-1H-pyrazol-5-yl)-2-quinolinyl)-2,6-diazaspiro[3.4]octan-2-yl)-2-propen-1-one] | 519 nM
C=CC(=O)N1CC2(CCN(c3nc4cc(-c5ccnn5C)ccc4c(-c4ccccc4F)c3C)C2)C1 [Example 16-4, 1-(6-(4-(2-fluorophenyl)-3-methyl-7-(1-methyl-1H-pyrazol-5-yl)-2-quinolinyl)-2,6-diazaspiro[3,4]octan-2-yl)-2-propen-1-one] | 644 nM
C=CC(=O)N1CC2(CCN(c3nc4cc(-c5ccnn5C)ccc4c(-c4c(O)cccc4Cl)c3C)C2)C1 [Example 16-5, 1-(6-(4-(2-chloro-6-hydroxyphenyl)-3-methyl-7-(1-methyl-1H-pyrazol-5-yl)-2-quinolinyl)-2,6-diazaspiro[3.4]octan-2-yl)-2-propen-1-one] | 390 nM
C=CC(=O)N1CC2(CCN(c3nc4cc(-c5ccnn5C)ccc4c(-c4ccc(F)cc4F)c3C)C2)C1 [Example 16-6, 1-(6-(4-(2,4-difluorophenyl)-3-methyl-7-(1-methyl-1H-pyrazol-5-yl)-2-quinolinyl)-2,6-diazaspiro[3.4]octan-2-yl)-2-propen-1-one] | 708 nM
C=CC(=O)N1CC2(CCN(c3nc4cc(-c5ccnn5C)ccc4c(-c4cccc(F)c4Cl)c3C)C2)C1 [Example 16-7, 1-(6-(4-(2-chloro-3-fluorophenyl)-3-methyl-7-(1-methyl-1H-pyrazol-5-yl)-2-quinolinyl)-2,6-diazaspiro[3.4]octan-2-yl)-2-propen-1-one] | 716 nM
C=CC(=O)N1CC2(CCN(c3nc4cc(-c5ccnn5C)ccc4c(-c4c(C)cccc4F)c3C)C2)C1 [Example 16-8, 1-(6-(4-(2-fluoro-6-methylphenyl)-3-methyl-7-(1-methyl-1H-pyrazol-5-yl)-2-quinolinyl)-2,6-diazaspiro[3.4]octan-2-yl)-2-propen-1-one] | 702 nM
C=CC(=O)N1CC2(CCN(c3nc4cc(-c5ccnn5C)ccc4c(-c4c(O)cccc4F)c3C)C2)C1 [Example 16-10, 1-(6-(4-(2-fluoro-6-hydroxyphenyl)-3-methyl-7-(1-methyl-1H-pyrazol-5-yl)-2-quinolinyl)-2,6-diazaspiro[3,4]octan-2-yl)-2-propen-1-one] | 260 nM
C=CC(=O)N1CC2(CCN(c3nc4cc(-c5ccnn5C)ccc4c(-c4cc(O)ccc4F)c3C)C2)C1 [Example 16-11, 1-(6-(4-(2-fluoro-5-hydroxyphenyl)-3-methyl-7-(1-methyl-1H-pyrazol-5-yl)-2-quinolinyl)-2,6-diazaspiro[3,4]octan-2-yl)-2-propen-1-one] | 347 nM
C=CC(=O)N1CC2(CCN(c3nc4cc(-c5ccnn5C)ccc4c(-c4cc(O)c(F)cc4F)c3C)C2)C1 [Example 16-12, 1-(6-(4-(2,4-difluoro-5-hydroxyphenyl)-3-methyl-7-(1-methyl-1H-pyrazol-5-yl)-2-quinolinyl)-2,6-diazaspiro[3.4]octan-2-yl)-2-propen-1-one] | 488 nM
C=CC(=O)N1CC2(CCN(c3nc4cc(-c5ccnn5C)ccc4c(-c4cc(O)cc(F)c4F)c3C)C2)C1 [Example 16-13, 1-(6-(4-(2,3-difluoro-5-hydroxyphenyl)-3-methyl-7-(1-methyl-1H-pyrazol-5-yl)-2-quinolinyl)-2,6-diazaspiro[3.4]octan-2-yl)-2-propen-1-one] | 368 nM

More lines, now with the values ahead:

IC50 | Structure (SMILES)
373 nM | C=CC(=O)N1CC2(CCN(c3nc4cc(-c5ccnn5C)ccc4c(-c4cc(O)c(F)cc4Cl)c3C)C2)C1 [Example 16-14, 1-(6-(4-(2-chloro-4-fluoro-5-hydroxyphenyl)-3-methyl-7-(1-methyl-1H-pyrazol-5-yl)-2-quinolinyl)-2,6-diazaspiro[3.4]octan-2-yl)-2-propen-1-one]
293 nM | C=CC(=O)N1CC2(CCN(c3nc4cc(-c5ccnn5C)ccc4c(-c4ccccc4Cl)c3C#N)C2C)C1 (centres unmarked) [Example 17-1, 2-(2-acryloyl-5-methyl-2,6-diazaspiro[3.4]octan-6-yl)-4-(2-chlorophenyl)-7-(1-methyl-1H-pyrazol-5-yl)quinoline-3-carbonitrile]
521 nM | C=CC(=O)N1CC2(CCN(c3nc4cc(-c5ccnn5C(F)F)ccc4c(-c4ccccc4Cl)c3C#N)C2)C1 [Example 17-4, 4-(2-chlorophenyl)-7-(1-(difluoromethyl)-1H-pyrazol-5-yl)-2-(2-(2-propenoyl)-2,6-diazaspiro[3.4]octan-6-yl)-3-quinolinecarbonitrile]
571 nM | C=CC(=O)N1CC2(CCN(c3nc4cc(-c5ccn[nH]5)ccc4c(-c4ccccc4Cl)c3C#N)C2)C1 [Example 17-8, 4-(2-chlorophenyl)-2-(2-(2-propenoyl)-2,6-diazaspiro[3.4]octan-6-yl)-7-(1H-pyrazol-3-yl)-3-quinolinecarbonitrile]
722 nM | C=CC(=O)N1CC2(CCN(c3nc4cc(-c5ocnc5C)ccc4c(-c4ccccc4Cl)c3C#N)C2)C1 [Example 17-9, 4-(2-chlorophenyl)-7-(4-methyl-1,3-oxazol-5-yl)-2-(2-(2-propenoyl)-2,6-diazaspiro[3.4]octan-6-yl)-3-quinolinecarbonitrile]
570 nM | C=CC(=O)N1CC2(CCN(c3nc4cc(-c5ocnc5C)ccc4c(-c4ccccc4F)c3C#N)C2)C1 [Example 17-10, 4-(2-fluorophenyl)-7-(4-methyl-1,3-oxazol-5-yl)-2-(2-(2-propenoyl)-2,6-diazaspiro[3.4]octan-6-yl)-3-quinolinecarbonitrile]
164 nM | C=CC(=O)N1CC2(CCN(c3nc4c(c(-c5ncccc5F)c3C#N)CC[C@@H](c3scnc3C)C4)C2)C1 [Example 23-59, (7R)-4-(3-fluoro-2-pyridinyl)-7-(4-methyl-1,3-thiazol-5-yl)-2-(2-(2-propenoyl)-2,6-diazaspiro[3.4]octan-6-yl)-5,6,7,8-tetrahydro-3-quinolinecarbonitrile]
450 nM | C=CC(=O)N1CC2(CCN(c3nc4c(c(-c5cc(NS(C)(=O)=O)cc6ccccc56)c3C#N)CC(C)(C)C4)C2)C1 [Example 25-1, N-(4-(3-cyano-6,6-dimethyl-2-(2-(2-propenoyl)-2,6-diazaspiro[3.4]octan-6-yl)-6,7-dihydro-5H-cyclopenta[b]pyridin-4-yl)-2-naphthalenyl)methanesulfonamide]
655 nM | C=CC(=O)N1CC2(CCN(c3nc4cc(-c5scnc5C)cnc4c(-c4ccccc4F)c3Cl)C2)C1 [Example 28-1, 1-(6-(3-chloro-4-(2-fluorophenyl)-7-(4-methylthiazol-5-yl)-1,5-naphthyridin-2-yl)-2,6-diazaspiro[3.4]octan-2-yl)prop-2-en-1-one]
648 nM | C=CC(=O)N1CC2(CCN(c3nc4c(c(-c5c(C)ccc6cnn(C)c56)c3C(F)F)COC(C)(C)C4)C2)C1 [Example 29-1, 1-(6-(3-(difluoromethyl)-4-(1,6-dimethyl-1H-indazol-7-yl)-7,7-dimethyl-7,8-dihydro-5H-pyrano[4,3-b]pyridin-2-yl)-2,6-diazaspiro[3.4]octan-2-yl)-2-propen-1-one]
